From patent US20260055375A1, “CULTURE METHOD” (Babraham Institute, priority 2023, published 2026) come the findings set out here.

Assay [1] relates to endometrial stromal cells. Briefly: Morphometric analysis of stromal cells in hormone-stimulated endometrium assembloid. Type of assay: cell-based, human. Here is the method: (§1) Hormone stimulation scheme aimed to recapitulate the mid-secretory phase of human endometrial cycle when receptive phenotype optimal for embryo implantation, known as window of implantation, is acquired. For this purpose, β-oestradiol (E2) stimulation was started in upper and lower compartments for 4 days to simulate the proliferative phase of human endometrial cycle. A total volume of 300 μL of organoid media supplemented by 2% charcoal stripped FBS (Sigma Aldrich, F6765) and 10 nM of β-oestradiol (E2, Sigma E4389) was added to the top compartment of the transwell culture system. A total volume of 1 mL of hEnSC medium supplemented by 2% charcoal stripped FBS (Sigma Aldrich, F6765) and 10 nM of β-oestradiol (E2, Sigma E4389) was added to the lower compartment. Media were changed each 2 days. After 4 days, upper and lower compartments were stimulated with full hormone mixture containing E2, progesterone (P4) and 8-bromoadenosine 3′,5′-cyclic monophosphate (CAMP) for 8 days. A total volume of 300 μL of organoid media supplemented by 2% charcoal stripped FBS (Sigma Aldrich, F6765), 10 nM of E2 (Sigma E4389), 1 μM of P4 (Sigma P7556) and 1 μM of cAMP (Sigma, B7880) was added to the top compartment of the transwell culture system. A total volume of 1 mL of hEnSC medium supplemented by 2% charcoal stripped FBS (Sigma Aldrich, F6765) and […] (Sigma E4389), 1 μM of P4 (Sigma P7556) and […] (Sigma, B7880) was added to the lower compartment. Media were changed each 2 days.
(§2) Morphometric analyses were performed on stromal and epithelial compartments on proliferative phase (after 4 days of E2 stimulation) and secretory phase (after 8 days of stimulation with E2, P4 and cAMP).
Cell segmentation and cell morphometric analyses were performed from confocal microscopy images of stromal and epithelial compartment. […]
Stromal length (μm) and width (μm) were acquired for each cell using the line tool from Fiji. […] In this case, only line measurements (in μm) corresponding to length and width of each stromal cell were recorded to calculate length/width ratio. […]

Assay [2] relates to epithelial endometrial cells. Briefly: Morphometric analysis of surface epithelial cells in hormone-stimulated endometrium assembloid. Type of assay: cell-based, human. Here is the method:
as §1, §2
Cell segmentation and cell morphometric analyses were performed from confocal microscopy images of stromal and epithelial compartment. Vimentin and cytokeratin-7 were used as stromal and epithelial markers, respectively, to determine stromal and epithelial compartment. Phalloidin signal was used to perform cell segmentation of stromal and epithelial compartments. Cell segmentation was done in an intermediate field of the whole Z-stack, choosing a relatively flat area to maximize the accuracy of the segmentation using Fiji (https://imagej.net/software/fiji/).
Epithelial cells were segmented manually using polygon selection tool from Fiji. Cell contour was drawn with multiple points to accurately fit perimeter of each cell segmented. Fit spline option (“Edit”>“Selection”>“Fit spline”) was used in all cases to smooth cell contour and maximize the match of manual cell segmentation with cell perimeter. Each Region Of Interest (ROI) corresponding to each epithelial cell segmented was added to ROI manager (“Analyse”>“Tools” >“ROI manager”).
Once acquired all ROI, the following measurements were set (“Analyse”>“Set Measurements”): area (μm^2), perimeter (μm), and shape descriptors roundness, circularity, aspect ratio, and solidity. Roundness ((4·area)/(π·major axis^2)) ranges from 0 to 1 indicating elongated or circle-like shape. Circularity (4π·area/perimeter^2) ranges from 0 to 1 and correlates with shape roughness. Aspect ratio is defined as the ratio between major and minor axis of the best fit ellipse. Solidity, defined as a ratio between area and convex area, ranges from 0 to 1, describing a concave or convex shape.

[3] abbreviates: stromal cells, proliferative (E2 4 days) vs secretory (E2, P4 and cAMP 8 days).

The structures appear in SMILES notation.

As to `C[C@]12CC[C@@H]3c4ccc(O)cc4CC[C@H]3[C@@H]1CC[C@@H]2O` [E2, β-oestradiol], in assay [1] (stromal cells in 3D, proliferative phase = E2 4 days, secretory phase = E2, P4 and cAMP 8 days), the “length/width ratio (median)” value turned out to be 9.14. For the same compound, in assay [1] (setting [3]), the “cell length (median)” value is 105.4 μm and the “cell width (median)” value is recorded as 11.39 μm. In assay [2] (proliferative (E2 4 days) vs secretory (E2, P4 and cAMP 8 days)), the “surface area (median)” value turned out to be 75.67 μm^2. For the same compound, in assay [2] (proliferative vs secretory), the “aspect ratio (AR) (median)” value came out at 1.584, the “cell perimeters (median)” value came out at 34.61 μm, the “cell roundness (median)” value amounted to 0.6315 and the “circularity (median)” value came out at 0.7920. Besides, the “solidity (median)” value in assay [2] (proliferative vs secretory) came out at 0.9820.
